Measurements reported in patent US4218395A, “Ureylene naphthalene sulfonic acids” (American Cyanamid Company, priority 1978, dated 1980).
Where a name gives a salt, the structure may show the parent alone.

Assays:
human C1 = target: T1, human C1 (Homo sapiens, UniProt P09871); test: Test, Code 026 (C1 inhibitor); format: biochemical; conditions: activity in wells, twofold serial dilution assay; higher well number indicates higher activity
T1 construct: hemolytic test of fluid-phase C2 destruction in presence of C4
T1 sequence (P09871 16-688): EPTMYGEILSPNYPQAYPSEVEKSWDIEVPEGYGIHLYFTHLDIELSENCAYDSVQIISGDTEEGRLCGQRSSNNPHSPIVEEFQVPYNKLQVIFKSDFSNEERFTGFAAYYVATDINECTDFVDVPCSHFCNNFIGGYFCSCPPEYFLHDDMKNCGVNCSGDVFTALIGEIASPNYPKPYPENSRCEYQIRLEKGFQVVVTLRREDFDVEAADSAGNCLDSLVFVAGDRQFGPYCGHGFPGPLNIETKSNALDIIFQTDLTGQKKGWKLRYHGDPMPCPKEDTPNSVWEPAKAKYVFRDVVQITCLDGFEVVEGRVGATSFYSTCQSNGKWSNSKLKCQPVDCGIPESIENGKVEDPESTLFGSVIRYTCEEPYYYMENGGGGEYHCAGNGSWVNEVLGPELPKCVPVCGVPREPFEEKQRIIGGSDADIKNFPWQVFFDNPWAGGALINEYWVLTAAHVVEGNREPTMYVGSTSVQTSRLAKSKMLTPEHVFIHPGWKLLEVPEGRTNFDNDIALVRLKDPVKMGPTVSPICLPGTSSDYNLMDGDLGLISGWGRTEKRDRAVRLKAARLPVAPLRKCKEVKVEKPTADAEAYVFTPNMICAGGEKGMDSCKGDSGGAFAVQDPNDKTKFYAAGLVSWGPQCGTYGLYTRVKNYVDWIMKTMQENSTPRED
T1 sequence (P00736 18-705 partner): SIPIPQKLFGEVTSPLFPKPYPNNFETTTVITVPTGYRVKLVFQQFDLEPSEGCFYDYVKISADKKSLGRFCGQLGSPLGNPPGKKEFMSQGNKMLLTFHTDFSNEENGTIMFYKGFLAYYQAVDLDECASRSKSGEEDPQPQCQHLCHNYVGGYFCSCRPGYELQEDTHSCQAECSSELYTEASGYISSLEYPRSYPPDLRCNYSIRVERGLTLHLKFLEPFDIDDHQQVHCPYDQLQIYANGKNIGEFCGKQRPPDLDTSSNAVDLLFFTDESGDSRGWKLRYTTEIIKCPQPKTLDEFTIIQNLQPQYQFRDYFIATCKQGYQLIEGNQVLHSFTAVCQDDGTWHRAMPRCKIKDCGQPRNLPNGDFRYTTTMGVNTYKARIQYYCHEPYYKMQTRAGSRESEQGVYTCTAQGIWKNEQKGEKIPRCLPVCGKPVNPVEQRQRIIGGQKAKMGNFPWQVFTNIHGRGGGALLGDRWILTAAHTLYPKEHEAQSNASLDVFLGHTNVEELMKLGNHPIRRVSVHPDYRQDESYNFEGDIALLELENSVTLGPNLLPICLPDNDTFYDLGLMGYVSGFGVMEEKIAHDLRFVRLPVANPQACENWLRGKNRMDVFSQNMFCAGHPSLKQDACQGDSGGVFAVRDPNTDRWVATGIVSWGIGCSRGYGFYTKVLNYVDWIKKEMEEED
T1 sequence (P02745 23-245 partner): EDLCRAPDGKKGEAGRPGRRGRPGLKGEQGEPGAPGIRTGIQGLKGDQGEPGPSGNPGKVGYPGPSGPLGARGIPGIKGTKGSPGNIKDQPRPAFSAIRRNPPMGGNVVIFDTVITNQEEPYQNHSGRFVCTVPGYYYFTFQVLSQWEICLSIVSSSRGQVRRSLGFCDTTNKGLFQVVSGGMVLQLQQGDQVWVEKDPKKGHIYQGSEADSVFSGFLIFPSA
T1 sequence (P02746 28-253 partner): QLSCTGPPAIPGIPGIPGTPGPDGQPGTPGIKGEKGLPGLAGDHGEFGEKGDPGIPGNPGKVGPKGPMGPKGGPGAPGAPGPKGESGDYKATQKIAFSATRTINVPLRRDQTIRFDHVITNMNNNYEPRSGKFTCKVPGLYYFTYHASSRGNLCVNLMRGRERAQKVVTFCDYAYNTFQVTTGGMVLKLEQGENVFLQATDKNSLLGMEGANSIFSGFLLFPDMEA
T1 sequence (P02747 29-245 partner): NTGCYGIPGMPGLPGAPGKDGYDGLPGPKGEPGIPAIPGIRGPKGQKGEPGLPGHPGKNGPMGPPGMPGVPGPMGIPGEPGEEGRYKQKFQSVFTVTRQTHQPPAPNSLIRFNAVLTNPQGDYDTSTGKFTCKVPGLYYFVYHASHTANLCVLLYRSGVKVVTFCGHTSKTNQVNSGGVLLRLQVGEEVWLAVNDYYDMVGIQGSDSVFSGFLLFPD
Description: (§1) An active inhibitor protects C2 from C1 and C4; (ii) Test, Code 035 (C3-C9 inhibitor)-This test determines the ability of the late components of human complement (C3-C9) to lyse EAC 142 in the presence of appropriate dilutions of the test compound. An active inhibitor protects EAC 142 from lysis by human C3-C9; (iii) Test, Code 036 (C-Shunt inhibitor)--In this test human erythrocytes rendered fragile are lysed in autologous serum via the shunt pathway activated by cobra venom factor in the presence of appropriate dilutions of the test compound. Inhibition of the shunt pathway results in failure of lysis; (iv) Forssman Vasculitis Test--Here, the well known complement dependent lesion, Forssman vasculitis, is produced in guinea pigs by intradermal injection of rabbit anti-Forssman antiserum. The lesion is measured in terms of diameter, edema and hemorrhage and the extent to which a combined index of these is inhibited by prior intraperitoneal injection of the test compound at 200 mg/kg is then reported, unless otherwise stated; (v) Forssman Shock Test--Lethal shock is produced in guinea pigs by an i.v. injection of anti-Forssman antiserum and the harmonic mean death time of treated guinea pigs is compared with that of simultaneous controls; (vi) Complement Level Reduction Test--In this test, the above dosed guinea pigs, or others, are bled for serum and the complement level is determined in undiluted serum by the capillary tube method of U.S. Pat. No. 3,876,376 and compared to undosed control guinea pigs; and (vii) Cap 50 Test--Here, appropriate amounts of the test compound are added to a pool of guinea pig serum in vitro, after which the undiluted serum capillary tube assay referred to above is run. The concentration of compound inhibiting 50% is reported.
(§2) With reference to Table I, guinea pigs weighing about 300 g were dosed intravenously (i.v.) or intraperitoneally (i.p.) with 200 mg/kg of the test compound dissolved in saline and adjusted to pH 7-8. […] Percent inhibition was calculated by comparison with simultaneous controls. […]

[1] = tested on: late components of human complement (C3-C9); test: Test, Code 035 (C3-C9 inhibitor): lysis of EAC 142; format: cell-based; conditions: activity in wells, twofold serial dilution assay; higher well number indicates higher activity
Description: as §1, §2

whole complement = test: In vivo complement inhibition in dosed guinea pigs (whole complement, capillary tube assay); conditions: i.p., 200 mg/kg
Description: as §1
With reference to Table I, guinea pigs weighing about 300 g were dosed intravenously (i.v.) or intraperitoneally (i.p.) with 200 mg/kg of the test compound dissolved in saline and adjusted to pH 7-8. One hour after dosing, the guinea pigs were decapitated, blood was collected and the serum separated. The serum was tested for whole complement using the capillary tube assay. Percent inhibition was calculated by comparison with simultaneous controls. The results appear in Table I together with results of tests, code 026, 035, 036, Cap 50, % inhibition and Forssman shock.

shunt pathway = test: Test, Code 036 (C-Shunt inhibitor): lysis of human erythrocytes via shunt pathway activated by cobra venom factor; format: cell-based; conditions: activity in wells, twofold serial dilution assay; higher well number indicates higher activity
Description: as §1, §2

[2] = tested on: hereditary angioneurotic edema; conditions: The New England Journal of Medicine, 286, 808-812 (1972); cited from earlier work
complement system = conditions: British Journal of Experimental Pathology, 33, 327-339 (1952); Clin. Exp. Immunol., 10, 127-138 (1972); cited from earlier work
human serum complement [3] = conditions: as judged by the reduction in total hemolytic complement activity, Pathologie Biologie, 25, 33-36 (1977); cited from earlier work
human serum complement [4] = conditions: as judged by the reduction in total hemolytic complement activity, Pathologie Biologie, 25, 33-36 (1977); cited from earlier work; remark: listed apart in the source

| Compound | C1 026* Wells (human C1) | C-Late 035* Wells [1] | In Vivo Activity (Guinea Pig) % Inhibition, Intraperitoneal, 30 minutes (whole complement) | In Vivo Activity (Guinea Pig) % Inhibition, Intraperitoneal, 60 minutes (whole complement) | In Vivo Activity (Guinea Pig) % Inhibition, Intraperitoneal, 120 minutes (whole complement) | Shunt Inhibition 036* Wells (shunt pathway) | treatment of hereditary angioneurotic edema [2] | effect on the complement system (complement system) | other results |
| --- | --- | --- | --- | --- | --- | --- | --- | --- | --- |
| O=C(Nc1cc(C(=O)Nc2cc(C(=O)O)cc(C(=O)Nc3ccc(S(=O)(=O)O)c4cc(S(=O)(=O)O)cc(S(=O)(=O)O)c34)c2)cc(C(=O)Nc2cc(C(=O)O)cc(C(=O)Nc3ccc(S(=O)(=O)O)c4cc(S(=O)(=O)O)cc(S(=O)(=O)O)c34)c2)c1)Nc1cc(C(=O)Nc2cc(C(=O)O)cc(C(=O)Nc3ccc(S(=O)(=O)O)c4cc(S(=O)(=O)O)cc(S(=O)(=O)O)c34)c2)cc(C(=O)Nc2cc(C(=O)O)cc(C(=O)Nc3ccc(S(=O)(=O)O)c4cc(S(=O)(=O)O)cc(S(=O)(=O)O)c34)c2)c1 [3,3',3",3'"-{Ureylenebis[s-phenenylbis(carbonylimino]}tetrakis[5-(4,6,8-trisulfo-1-naphthyl)carbamoyl]benzoic acid dodecasodium salt] | +7 Wells | +2 Wells | -90% | -94% | -89% | +5 Wells | – | – | – |
| Nc1cc(C(=O)Nc2cc(C(=O)O)cc(C(=O)Nc3ccc(S(=O)(=O)O)c4cc(S(=O)(=O)O)cc(S(=O)(=O)O)c34)c2)cc(C(=O)Nc2cc(C(=O)O)cc(C(=O)Nc3ccc(S(=O)(=O)O)c4cc(S(=O)(=O)O)cc(S(=O)(=O)O)c34)c2)c1 [3,3'-[5-Amino-m-phenylenebis(carbonylimino)]bis{5-[4,6,8-trisulfo-1-naphthyl)carbamoyl]}benzoic acid hexasodium salt] | +4 Wells | +2 Wells | -40% | -61% | -61% | +2 Wells | – | – | – |
| Cc1ccc(C(=O)Nc2ccc(S(=O)(=O)O)c3cc(S(=O)(=O)O)cc(S(=O)(=O)O)c23)cc1NC(=O)c1cc(NC(=O)Nc2cc(C(=O)Nc3cc(C(=O)Nc4ccc(S(=O)(=O)O)c5cc(S(=O)(=O)O)cc(S(=O)(=O)O)c45)ccc3C)cc(C(=O)Nc3cc(C(=O)Nc4ccc(S(=O)(=O)O)c5cc(S(=O)(=O)O)cc(S(=O)(=O)O)c45)ccc3C)c2)cc(C(=O)Nc2cc(C(=O)Nc3ccc(S(=O)(=O)O)c4cc(S(=O)(=O)O)cc(S(=O)(=O)O)c34)ccc2C)c1 [8,8',8",8'"-{Ureylenebis{s-phenenylbis[carbonylimino(4-methyl-3,1-phenylene)carbonylimino]}}tetra-1,3,5-naphthalenetrisulfonic acid dodecasodium salt] | +6 Wells | +3 Wells | -62% | -84% | -95% | +4 Wells | – | – | – |
| Cc1ccc(C(=O)Nc2ccc(S(=O)(=O)O)c3cc(S(=O)(=O)O)cc(S(=O)(=O)O)c23)cc1NC(=O)c1cccc(NC(=O)Nc2cccc(C(=O)Nc3cc(C(=O)Nc4ccc(S(=O)(=O)O)c5cc(S(=O)(=O)O)cc(S(=O)(=O)O)c45)ccc3C)c2)c1 [Suramin] | – | – | – | – | – | – | used with success | competitive inhibitor of the complement system | – |
| Nc1ccc2cc(S(=O)(=O)O)cc(O)c2c1N=Nc1ccc(NC(=O)Nc2ccc(N=Nc3c(N)ccc4cc(S(=O)(=O)O)cc(O)c34)c(S(=O)(=O)O)c2)cc1S(=O)(=O)O [chlorazol fast pink, 3,3'-ureylenebis-[6-(2-amino-8-hydroxy-6-sulfo-1-naphthylazo)]benzenesulfonic acid, tetrasodium salt] | – | – | – | – | – | – | – | anticomplementary effect | – |
| NCCCCCC(=O)O [epsilon-aminocaproic acid] | – | – | – | – | – | – | used with success | – | – |
| NC[C@H]1CC[C@H](C(=O)O)CC1 [tranexamic acid] | – | – | – | – | – | – | used with success | – | – |
| heparin | – | – | – | – | – | – | – | anticomplementary effect | – |
| pentosan-poly-sulfoester | – | – | – | – | – | – | – | – | anticomplementary activity on human serum in vivo (human serum complement [3]): anticomplementary activity; anticomplementary activity on human serum in vitro (human serum complement [4]): anticomplementary activity |
